In PubChem BioAssay (NCI):
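Protocol summary: plate cells (96-well), add compound at 5 concentrations, incubate 48 h, interpolate endpoints linearly. Definition used: TGI = concentration required for complete inhibition of growth.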

These molecules were tested on MDA-MB-435 (assay: NCI anticancer screen, dose series, 48 h).

**Q.** Which TGI does the source give for `O=C(O)c1nc(-c2ccccn2)c(-c2ccccn2)nc1C(=O)O` here?
**A.** 30.8 µM

**Q.** With `COc1ccc2c(c1C)C(=O)C(O)(CC=C(C)C)O2` (stereo not given) as the molecule, how does the TGI read?
**A.** > 100 µM

**Q.** `CCOC(=O)C1(C(=O)OCC)CN(CC)CN(c2ccccc2)C1` was tested. Which TGI did it give?
**A.** 37.3 µM

**Q.** With `Cc1cccc2c1[C@]13OC(C)[C@]4(C)CC5OC(=O)[C@@]1(C)[C@@H]5[C@]34C(=O)O2` (stereo not given in full) as the molecule, how does the TGI read?
**A.** > 100 µM

What follows are molecules tested on MOLT-4 leukemia (assay: NCI anticancer screen, dose series, 48 h).

**Q.** With `CSC1=C(SC)SC(=C2SC3=C(SC(=C4SCCS4)S3)S2)S1` as the molecule, how does the TGI read?
**A.** > 100 µM

**Q.** `Cc1ccc2c(c1CCCC(C)(C)O)C(=O)C(=O)C(C(C)C)=C2O` was tested. Which TGI did it give?
**A.** > 100 µM

**Q.** How did the TGI turn out when `O=C1C(Cl)C(c2ccccc2)N1n1cnc2ccccc2c1=O` (stereo not given) was run?
**A.** > 100 µM

**Q.** Which TGI does the source give for `CN(C)C(=O)OCOC(=O)N(C)C` here?
**A.** > 100 µM

**Q.** With `CC(=O)Oc1ccccc1-c1cc2ccccc2oc1=O` as the molecule, how does the TGI read?
**A.** > 100 µM

**Q.** Which TGI does the source give for `COC(=O)c1ccc(/C=C2\N=C(C)OC2=O)cc1` here?
**A.** > 100 µM

**Q.** How did the TGI turn out when `Cc1ccc2nc(-c3ccc(N)c(I)c3)sc2c1` was run?
**A.** > 100 µM

**Q.** How did the TGI turn out when `O=C1NC(=O)C(CCO)(c2ccccc2)C(=O)N1` was run?
**A.** > 100 µM

**Q.** With `COc1ccc2c(c1)CC[C@@H]1[C@@H]2CC[C@]2(C)C(=O)/C(=C/c3ccc(OC)c(OC)c3)C[C@@H]12` as the molecule, how does the TGI read?
**A.** > 100 µM

**Q.** `CC1=C(Br)C(Br)=C(C)S1=O` was tested. Which TGI did it give?
**A.** 33.4 µM

**Q.** For `C=CCn1c(=O)n(CC=C)c(=O)n(CC=C)c1=O`, which TGI is on record?
**A.** > 100 µM

**Q.** `CCCCN1C=CN2c3nc4cc(C)c(C)cc4n3C(C(=O)OC)=C(C(=O)OC)C12` (stereo not given) was tested. Which TGI did it give?
**A.** > 100 µM

**Q.** With `COC(=O)C(=C/c1ccc(OC)cc1)/C(C(=O)O)=C(/C)c1ccccc1` as the molecule, how does the TGI read?
**A.** > 100 µM

**Q.** How did the TGI turn out when `C=C1C(=O)O[C@H]2[C@H]1[C@@H](OC(=O)C=C(C)C)CC1=C[C@@H](C[C@@]3(C)O[C@@H]23)OC1=O` was run?
**A.** 77.4 µM

**Q.** How did the TGI turn out when `C=CCN1C[C@H](C)N([C@H](c2ccc(C(=O)N(CC)CCO)cc2)c2cccc(OC)c2)C[C@H]1C` was run?
**A.** > 100 µM

**Q.** For `CCC1OC2C(CC=C(C)C)=C3OC(C)(O)C(C)(CC)C(OC(=O)c4ccccc4)C3=C3OC(=O)C=C1C32` (stereo not given), which TGI is on record?
**A.** > 100 µM

**Q.** How did the TGI turn out when `CCOC(=O)C(N=Nc1ccc(S(N)(=O)=O)cc1)C(C)=O` (stereo not given) was run?
**A.** > 100 µM

**Q.** `Cc1ccc(C2CC(c3ccco3)=NN2c2ccccc2)o1` (stereo not given) was tested. Which TGI did it give?
**A.** > 100 µM

**Q.** Which TGI does the source give for `C/C(=C1/CCCC2(N=NCC2c2ccccc2)C1=O)c1ccccc1` (stereo not given) here?
**A.** 48.1 µM

**Q.** Which TGI does the source give for `CN1CCOC1(C)CO` (stereo not given) here?
**A.** > 100 µM

**Q.** How did the TGI turn out when `CCN1CCN(c2ccc(Nc3ccnc4ccc5nn(C)nc5c34)cc2)CC1` was run?
**A.** > 100 µM

**Q.** For `CC(C)CC1[C@@H](OCc2ccccc2)COS(=O)N1Cc1ccccc1` (stereo not given in full), which TGI is on record?
**A.** > 100 µM

**Q.** `OCC1OC(n2cnc3c2NC=NC[C@H]3O)C(O)C1O` (stereo not given in full) was tested. Which TGI did it give?
**A.** > 450 µM

**Q.** `CC(=O)OC1CC2c3cccc4c3C(CC2N(C)C1=O)CN4C(=O)c1ccccc1` (stereo not given) was tested. Which TGI did it give?
**A.** > 100 µM

**Q.** How did the TGI turn out when `COc1ccc2c3c1O[C@H]1C(O)CCC4(O)[C@@H](C2)NCC[C@]314` (stereo not given in full) was run?
**A.** > 100 µM

**Q.** `O=C(O)c1nc(-c2ccccn2)c(-c2ccccn2)nc1C(=O)O` was tested. Which TGI did it give?
**A.** > 28.3 µM

**Q.** Which TGI does the source give for `O=[N+]([O-])c1ccc(-n2nnc(C3=NCCCN3)c2-c2ccc(Cl)cc2)cc1` here?
**A.** > 100 µM

**Q.** How did the TGI turn out when `COc1cc2c(cc1OC)C(O)[C@H](Br)C(C)(C)O2` (stereo not given in full) was run?
**A.** > 100 µM

**Q.** For `CCCCCC(C[N+]1(C)CCOCC1)C(=O)/C=C/c1ccccc1` (stereo not given), which TGI is on record?
**A.** 27.4 µM

**Q.** For `COc1ccc2c(c1C)C(=O)C(O)(CC=C(C)C)O2` (stereo not given), which TGI is on record?
**A.** > 100 µM

**Q.** Which TGI does the source give for `CCOC(=O)C1(C(=O)OCC)CN(CC)CN(c2ccccc2)C1` here?
**A.** 40.4 µM

**Q.** How did the TGI turn out when `Cc1cccc2c1[C@]13OC(C)[C@]4(C)CC5OC(=O)[C@@]1(C)[C@@H]5[C@]34C(=O)O2` (stereo not given in full) was run?
**A.** > 100 µM

**Q.** With `CC(=O)OCC1OC(Nc2ncc(-c3ccc(C)cc3)s2)C(OC(C)=O)C(OC(C)=O)C1OC(C)=O` (stereo not given) as the molecule, how does the TGI read?
**A.** 65.3 µM

What follows are molecules tested on NCI-H226 lung (assay: NCI anticancer screen, dose series, 48 h).

**Q.** With `CSC1=C(SC)SC(=C2SC3=C(SC(=C4SCCS4)S3)S2)S1` as the molecule, how does the TGI read?
**A.** > 100 µM

**Q.** With `Cc1ccc2c(c1CCCC(C)(C)O)C(=O)C(=O)C(C(C)C)=C2O` as the molecule, how does the TGI read?
**A.** > 100 µM

**Q.** How did the TGI turn out when `O=C1C(Cl)C(c2ccccc2)N1n1cnc2ccccc2c1=O` (stereo not given) was run?
**A.** > 100 µM

**Q.** Which TGI does the source give for `CN(C)C(=O)OCOC(=O)N(C)C` here?
**A.** > 100 µM

**Q.** Which TGI does the source give for `CC(=O)Oc1ccccc1-c1cc2ccccc2oc1=O` here?
**A.** > 100 µM

**Q.** How did the TGI turn out when `COC(=O)c1ccc(/C=C2\N=C(C)OC2=O)cc1` was run?
**A.** > 100 µM

**Q.** How did the TGI turn out when `Cc1ccc2nc(-c3ccc(N)c(I)c3)sc2c1` was run?
**A.** 40.6 µM

**Q.** How did the TGI turn out when `O=C1NC(=O)C(CCO)(c2ccccc2)C(=O)N1` was run?
**A.** > 100 µM

**Q.** How did the TGI turn out when `Cn1ccc(C(=O)NCCOCCNC(=O)c2ccn(C)c(=O)c2O)c(O)c1=O` was run?
**A.** > 100 µM

**Q.** For `CC1=C(Br)C(Br)=C(C)S1=O`, which TGI is on record?
**A.** 50.2 µM

**Q.** Which TGI does the source give for `COC(=O)C(=C/c1ccc(OC)cc1)/C(C(=O)O)=C(/C)c1ccccc1` here?
**A.** > 100 µM

**Q.** For `C=C1C(=O)O[C@H]2[C@H]1[C@@H](OC(=O)C=C(C)C)CC1=C[C@@H](C[C@@]3(C)O[C@@H]23)OC1=O`, which TGI is on record?
**A.** 36.2 µM

**Q.** With `C=CCN1C[C@H](C)N([C@H](c2ccc(C(=O)N(CC)CCO)cc2)c2cccc(OC)c2)C[C@H]1C` as the molecule, how does the TGI read?
**A.** > 100 µM

**Q.** Which TGI does the source give for `CCOC(=O)C(N=Nc1ccc(S(N)(=O)=O)cc1)C(C)=O` (stereo not given) here?
**A.** > 100 µM

**Q.** `Cc1ccc(C2CC(c3ccco3)=NN2c2ccccc2)o1` (stereo not given) was tested. Which TGI did it give?
**A.** > 100 µM

**Q.** With `C/C(=C1/CCCC2(N=NCC2c2ccccc2)C1=O)c1ccccc1` (stereo not given) as the molecule, how does the TGI read?
**A.** 41.3 µM

**Q.** `CN1CCOC1(C)CO` (stereo not given) was tested. Which TGI did it give?
**A.** > 100 µM

**Q.** For `CCN1CCN(c2ccc(Nc3ccnc4ccc5nn(C)nc5c34)cc2)CC1`, which TGI is on record?
**A.** 26.2 µM
